Reference: PubChem BioAssay AID1259411 (Chemical Carcinogenesis Research Information System (CCRIS), 2018)
Active and inactive are the calls of the source. The rule behind the calls is not given here.

System: rodent carcinogenicity bioassays, tumor incidence
Assay: CCRIS carcinogenicity studies
How it was run: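 NCI-built, expert-reviewed records of carcinogenicity and related test outcomes (mutagenicity, tumor promotion/inhibition) compiled from published and report sources, historical span 1985-2011, not updated.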

O.O=C([O-])c1ccccn1.O=C([O-])c1ccccn1.O=C([O-])c1ccccn1.[Cr+3]
carcinogen call (Species: Mouse, Strain/Sex: B6C3F1 /Female (50/Group), Route: Oral, Dose: 0, 2000, 10,000, 50,000 ppm (average daily doses of 0; 240; 1200; 6100 mg/kg) in diet for 105 wk, Dose: 0, 2000, 10,000, 50,000 ppm (average daily doses of 0; 240; 1200; 6100 mg/kg) in diet for 105 wk): inactive; negative | carcinogen call (Species: Mouse, Strain/Sex: B6C3F1/Female (50/Group), Route: Oral, Dose: 0, 2,000, 10,000, 50,000 ppm in diet for 105 wk (Study duration: 105 wk), Dose: 0, 2,000, 10,000, 50,000 ppm in diet for 105 wk (Study duration: 105 wk)): inactive; negative | carcinogen call (Species: Mouse, Strain/Sex: B6C3F1/Male (50/Group), Route: Oral, Dose: 0, 2000, 10,000, 50,000 ppm (average daily doses of 0; 250; 1200; 6565 mg/kg) in diet for 105 wk, Dose: 0, 2000, 10,000, 50,000 ppm (average daily doses of 0; 250; 1200; 6565 mg/kg) in diet for 105 wk): inactive; negative | carcinogen call (Species: Mouse, Strain/Sex: B6C3F1/Male (50/Group), Route: Oral, Dose: 0, 2,000, 10,000, 50,000 ppm in diet for 105 wk (Study duration: 105 wk), Dose: 0, 2,000, 10,000, 50,000 ppm in diet for 105 wk (Study duration: 105 wk)): inactive; negative | carcinogen call (Species: Rat, Strain/Sex: F344/N / Female (50/Group), Route: Oral, Dose: 0, 2000, 10,000, 50,000 ppm (average daily doses of 0; 100; 510; 2630 mg/kg) in diet for 105 wk, Dose: 0, 2000, 10,000, 50,000 ppm (average daily doses of 0; 100; 510; 2630 mg/kg) in diet for 105 wk): inactive; negative | carcinogen call (Species: Rat, Strain/Sex: F344/N / Female (50/Group), Route: Oral, Dose: 0, 2,000, 10,000, 50,000 ppm in diet for 105 wk (Study duration: 105 wk), Dose: 0, 2,000, 10,000, 50,000 ppm in diet for 105 wk (Study duration: 105 wk)): inactive; negative | carcinogen call (Species: Rat, Strain/Sex: F344/N / Male (50/Group), Route: Oral, Dose: 0, 2000, 10,000, 50,000 ppm (average daily doses of 0; 90; 460; 2400 mg/kg) in diet for 105 wk, Dose: 0, 2000, 10,000, 50,000 ppm (average daily doses of 0; 90; 460; 2400 mg/kg) in diet for 105 wk, Tumor Site: Type of Lesion: Preputial gland: adenoma (1/50, 1/50, 7/50, 4/50)): equivocal | carcinogen call (Species: Rat, Strain/Sex: F344/N / Male (50/Group), Route: Oral, Dose: 0, 2,000, 10,000, 50,000 ppm in diet for 105 wk (Study duration: 105 wk), Dose: 0, 2,000, 10,000, 50,000 ppm in diet for 105 wk (Study duration: 105 wk), Tumor Site: Type of Lesion: Preputial gland: adenoma (1, 1, 7, 4; P</=0.05 at 10,000 ppm only)): inactive; negative. authors describe as equivocal evidence of carcinogenicity.

O=c1cc[nH]c(=O)[nH]1
carcinogen call (Species: MOUSE, Strain/Sex: B6C3F1/FEMALE, Route: ORAL, Dose: 0, 3% IN DIET FOR WK 1-6 OF STUDY THEN 0, 2.5% IN DIET FOR WK 7-96 (STUDY DURATION: 96 WK), Dose: 0, 3% IN DIET FOR WK 1-6 OF STUDY THEN 0, 2.5% IN DIET FOR WK 7-96 (STUDY DURATION: 96 WK), Tumor Site: Type of Lesion: URINARY BLADDER: TRANSITIONAL CELL CARCINOMA): active; positive | carcinogen call (Species: MOUSE, Strain/Sex: B6C3F1/MALE, Route: ORAL, Dose: 0, 3% IN DIET FOR WK 1-6 OF STUDY THEN 0, 2.5% IN DIET FOR WK 7-96 (STUDY DURATION: 96 WK), Dose: 0, 3% IN DIET FOR WK 1-6 OF STUDY THEN 0, 2.5% IN DIET FOR WK 7-96 (STUDY DURATION: 96 WK)): inactive; negative | carcinogen call (Species: RAT, Strain/Sex: F344/FEMALE, Route: ORAL, Dose: 0, 3% IN DIET FOR 104 WK (STUDY DURATION: 104 WK), Tumor Site: Type of Lesion: URINARY BLADDER: TRANSITIONAL CELL CARCINOMA): active; positive | carcinogen call (Species: RAT, Strain/Sex: F344/MALE, Route: ORAL, Dose: 0, 3% IN DIET FOR 104 WK (STUDY DURATION: 104 WK), Tumor Site: Type of Lesion: URINARY BLADDER: TRANSITIONAL CELL PAPILLOMA, TRANSITIONAL CELL CARCINOMA, RENAL PELVIS: PAPILLOMA, CARCINOMA): active; positive

CCCCC(CC)CO (centres undefined)
carcinogen call (Species: MOUSE, Strain/Sex: B6C3F1/FEMALE, Route: GAVAGE, Dose: 0, 50, 200, 750 MG/KG/D 5 D/WK FOR 18 MO (STUDY DURATION: 18 MO), Dose: 0, 50, 200, 750 MG/KG/D 5 D/WK FOR 18 MO (STUDY DURATION: 18 MO)): inactive; negative | carcinogen call (Species: MOUSE, Strain/Sex: B6C3F1/MALE, Route: GAVAGE, Dose: 0, 50, 200, 750 MG/KG/D 5 D/WK FOR 18 MO (STUDY DURATION: 18 MO), Dose: 0, 50, 200, 750 MG/KG/D 5 D/WK FOR 18 MO (STUDY DURATION: 18 MO)): inactive; negative | carcinogen call (Species: RAT, Strain/Sex: F344/FEMALE, Route: GAVAGE, Dose: 0, 50, 150, 500 MG/KG/D 5 D/WK FOR 24 MO (STUDY DURATION: 24 MO), Dose: 0, 50, 150, 500 MG/KG/D 5 D/WK FOR 24 MO (STUDY DURATION: 24 MO)): inactive; negative | carcinogen call (Species: RAT, Strain/Sex: F344/MALE, Route: GAVAGE, Dose: 0, 50, 150, 500 MG/KG/D 5 D/WK FOR 24 MO (STUDY DURATION: 24 MO), Dose: 0, 50, 150, 500 MG/KG/D 5 D/WK FOR 24 MO (STUDY DURATION: 24 MO)): inactive; negative

ClCc1cccnc1
carcinogen call (Species: MOUSE, Strain/Sex: B6C3F1/FEMALE, Route: GAVAGE, Dose: 0, 100, 200 MG/KG, Dose: 0, 100, 200 MG/KG, Tumor Site: Type of Lesion: STOMACH: SQUAMOUS CELL PAPILLOMA, CARCINOMA): active; positive | carcinogen call (Species: MOUSE, Strain/Sex: B6C3F1/MALE, Route: GAVAGE, Dose: 0, 100, 200 MG/KG, Dose: 0, 100, 200 MG/KG, Tumor Site: Type of Lesion: STOMACH: SQUAMOUS CELL PAPILLOMA, CARCINOMA): active; positive | carcinogen call (Species: RAT, Strain/Sex: F344/FEMALE, Route: GAVAGE, Dose: 0, 75, 150 MG/KG FOR 83 WK (STUDY DURATION: 104 WK), Dose: 0, 75, 150 MG/KG FOR 83 WK (STUDY DURATION: 104 WK), Tumor Site: Type of Lesion: FORESTOMACH: SQUAMOUS CELL PAPILLOMA): equivocal | carcinogen call (Species: RAT, Strain/Sex: F344/MALE, Route: GAVAGE, Dose: 0, 75, 150 MG/KG, Dose: 0, 75, 150 MG/KG, Tumor Site: Type of Lesion: STOMACH: SQUAMOUS CELL PAPILLOMA OR CARCINOMA): active; positive

O=[N+]([O-])c1ccc(-c2ccccc2)cc1
carcinogen call (Species: DOG, Strain/Sex: MONGREL/FEMALE, Route: ORAL, Dose: 300 MG 3/WK FOR LIFE, Tumor Site: Type of Lesion: URINARY BLADDER: EPITHELIAL CARCINOMA): active; positive | carcinogen call (Species: RAT, Strain/Sex: SPRAGUE-DAWLEY/FEMALE, Route: SUBCUTANEOUS, Dose: 0, 50, 100 UMOL/KG IN DMSO 1/WK FOR 8 WK (STUDY DURATION: 62 WK), Dose: 0, 50, 100 UMOL/KG IN DMSO 1/WK FOR 8 WK (STUDY DURATION: 62 WK)): inactive; negative | carcinogen call (Species: RAT, Strain/Sex: SPRAGUE-DAWLEY/MALE, Route: SUBCUTANEOUS, Dose: 0, 50, 100 UMOL/KG IN DMSO 1/WK FOR 8 WK (STUDY DURATION: 62 WK), Dose: 0, 50, 100 UMOL/KG IN DMSO 1/WK FOR 8 WK (STUDY DURATION: 62 WK)): inactive; negative

OC(c1ccc(Cl)cc1)(c1ccc(Cl)cc1)C(Cl)(Cl)Cl
carcinogen call (Species: MOUSE, Strain/Sex: B6C3F1/FEMALE, Route: ORAL, Dose: 0, 122, 243 PPM IN DIET, Dose: 0, 122, 243 PPM IN DIET): inactive; negative | carcinogen call (Species: MOUSE, Strain/Sex: B6C3F1/MALE, Route: ORAL, Dose: 0, 264, 528 PPM IN DIET, Dose: 0, 264, 528 PPM IN DIET, Tumor Site: Type of Lesion: LIVER: HEPATOCELLULAR CARCINOMA OR HEPATOCELLULAR ADENOMA): active; positive | carcinogen call (Species: RAT, Strain/Sex: OSBORNE-MENDEL/FEMALE, Route: ORAL, Dose: 0, 380, 760 PPM IN DIET, Dose: 0, 380, 760 PPM IN DIET): inactive; negative | carcinogen call (Species: RAT, Strain/Sex: OSBORNE-MENDEL/MALE, Route: ORAL, Dose: 0, 471, 942 PPM IN DIET, Dose: 0, 471, 942 PPM IN DIET): inactive; negative

CC(=O)Nc1ccc(-c2ccc(N(O)C(C)=O)cc2)cc1
carcinogen call (Species: RAT, Strain/Sex: STRAIN-CD/FEMALE, Route: INTRAPERITONEAL, Dose: 0, 10, 30 UMOL/KG IN TRIOCTANOIN 2/WK FOR 4 WK (TOTAL DOSES: 13.2, 40.0 UMOL) (STUDY DURATION: 46 WK), Dose: 0, 10, 30 UMOL/KG IN TRIOCTANOIN 2/WK FOR 4 WK (TOTAL DOSES: 13.2, 40.0 UMOL) (STUDY DURATION: 46 WK), Tumor Site: Type of Lesion: MAMMARY GLAND: FIBROADENOMA, ADENOCARCINOMA, EAR (ZYMBAL GLAND): ADENOMA OR CARCINOMA): active; positive

Cc1c(O)cc2c(c1C)OC(C)(CCCC(C)CCCC(C)CCCC(C)C)CC2 (centres undefined)
carcinogen call (Species: MOUSE, Strain/Sex: 6HF1/MALE, Route: ORAL, Dose: 0, 5% IN BASAL DIET FOR 104 WK (STUDY DURATION: 104 WK), Tumor Site: Type of Lesion: LIVER: TUMOR): active; positive
